Publication PMC6273431, “The Structure–Antimicrobial Activity Relationships of a Promising Class of the Compounds Containing the N-Arylpiperazine Scaffold” (Molecules, 2016)
Where two headings read alike, the source gives them in different places.

Columns and labels:
[1] = tested on: methicillin-resistant Staphylococcus aureus 63718; test: antibacterial MIC, microtitration broth method; assay type: cell-based; conditions: MRSA, 37 °C
Method: (§1) Prior to the testing, each strain was transferred into a nutrient agar (Oxoid Limited, Basingstoke, UK), which was enriched with 5% defibrinated bovine blood.
(§2) The MICs were determined by the microtitration broth method in the cation-adjusted Mueller-Hinton broth (Becton Dickinson, Oxford, UK) according to an international interdisciplinary Clinical Laboratory Standard Institute guidelines.
(§3) The checkerboard was inoculated by the bacterial inocula, which were prepared in a phosphate buffered saline solution with the pH = 7.2–7.3 to simulate physiological pH. The final concentration of each inoculum in the final volume of 100 μL in the wells was approximately 7.5 × 10^6 CFU/mL. Drug-free controls, sterility controls and the controls consisted of the broth with DMSO were included. The determination of the results was performed visually after 24 h of static incubation in the darkness at 37 °C in an aerobic atmosphere.
(§4) To ensure reproducibility, each antibacterial MIC assay was performed triplicate on separate occasions.

[2] = tested on: Staphylococcus aureus ATCC 29213; test: antibacterial MIC, microtitration broth method; assay type: cell-based; conditions: 37 °C
Method: as §1, §2, §3, §4

[3] = tested on: Enterococcus faecalis ATCC 29212; test: antibacterial MIC, microtitration broth method; assay type: cell-based; conditions: 37 °C
Method: as §1, §2, §3, §4

[4] = tested on: Escherichia coli ATCC 25922; test: antibacterial MIC, microtitration broth method; assay type: cell-based; conditions: 37 °C
Method: as §1, §2, §3, §4

[5] = tested on: Candida albicans CCM 8261; test: candidacidal MIC, microdilution method; assay type: cell-based; conditions: Candida albicans, CCM8261, 48 h, 37 °C
Method: (§5) In order to provide a look into the potential usefulness of the derivatives 5a–l as the candidates for a development of anti-yeast (candidacidal) agents, they were in vitro tested against Candida albicans CCM 8261 (CA 8261), C. krusei CCM 8271 (CK 8271) and C. parapsilosis CCM 8260 (CP 8260). The yeasts were obtained from the Czech Collection of Microorganisms (Masaryk University, Faculty of Science, Brno, Czech Republic). They were grown and kept on Sabouraud agar (Oxoid Limited, Basingstoke, UK).
(§6) For the screening, the microdilution method according to the Antimicrobial Susceptibility Testing Protocols was applied. The inoculum was prepared from the cultures grown on Sabouraud agar. With the sterile solution of NaCl, the inoculum was prepared to the 0.5 McFarland units using the Densi-La-Meter densitometer (LIAP, Riga, Latvia) and diluted a thousand‑fold with the Roswell Park Memorial Institute (RPMI) 1640 medium (Sigma-Aldrich, Darmstadt, Germany). Prepared suspension was used for an inoculation of microtitre plates. Final concentration in wells ranged from 5.0 × 10^2 CFU/mL to 2.5 × 10^3 CFU/mL. […] For the determination of the MICs, the stock solutions of all the tested compounds were diluted in the microtitre checkerboard to the final concentration varying from 128 μg/mL to 0.125 μg/mL. Drug-free control, sterility control and the control consisted of a medium and DMSO alone were included. Inoculated microtitre plates were incubated for 48 h in the darkness at 37 °C in an aerobic atmosphere. The results were estimated against static light.
(§7) The MIC was defined as the lowest concentration of the tested compound at which no visible growth was observed. To ensure reproducibility of the results, each candidacidal MIC assay was performed triplicate on separate occasions. It was important to note that all the MICs from the in vitro antimicrobial screening were expressed in μg/mL units and were available in Tables S3 and S4 (Supplementary Materials).

[6] = tested on: Candida parapsilosis CCM 8260; test: candidacidal MIC, microdilution method; assay type: cell-based; conditions: Lodderomyces parapsilosis, CCM8260, 48 h, 37 °C
Method: as §5, §6, §7

Candida krusei CCM 8271 = test: candidacidal MIC, microdilution method; assay type: cell-based; conditions: Pichia kudriavzevii, CCM8271, 48 h, 37 °C
Method: as §5, §6, §7

[7] = tested on: Mycobacterium avium subsp. paratuberculosis CIT03; test: antimycobacterial MIC, MB broth, alamarBlue; assay type: cell-based; conditions: 264 h, read-out: MIC MAP
Method: The Mycobacterium avium subsp. paratuberculosis CIT03 strain was grown in the Middlebrook (MB) broth, supplemented with the Oleic-Albumin-Dextrose-Catalase Supplement (OADC, Becton Dickinson, Oxford, UK) and the mycobactin J (2 μg/mL). The commercially available siderophore mycobactin J reduced the incubation period of M. avium subsp. paratuberculosis in a complex medium when compared to the medium containing the mycobactin P as a growth factor.
The identification of the isolate was performed using biochemical and molecular protocols. At a log phase growth, a culture sample (10 mL) was centrifuged at 15,000 rpm/20 min using a bench top centrifuge (Model CR 4-12, Jouan Inc., London, UK). Following removal of the supernatant, the pellet was washed in fresh Middlebrook 7H9GC broth and re-suspended in fresh supplemented MB broth (10 mL). The turbidity was adjusted to match the McFarland standard No. 1 containing approximately 3.0 × 10^8 Colony Forming Units (CFU) with the MB broth. Further 1:20 dilution of the culture was performed in the MB broth. The susceptibility of given mycobacterial species was investigated in a 96-well plate format. In those experiments, sterile deionised water (300 μL) was added to all outer-perimeter wells of the plates to minimize an evaporation of the medium in the test wells during the incubation process. Each evaluated compound (100 μL) was incubated with the mycobacterial species (100 μL). The dilutions of a particular compound were prepared in triplicate. For all inspected derivatives, final concentrations ranged from 1000 μg/mL to 60 μg/mL. All compounds were prepared in dimethyl sulfoxide (DMSO; Sigma-Aldrich, Irvine, UK) and subsequent dilutions were made in the supplemented MB broth. The plates were sealed with a parafilm and incubated at 37 °C for 11 days. Following the incubation, a 10% addition of a water‑soluble dye, the alamarBlue reagent (AbD Serotec, Kidlington, UK), was mixed into each well. Absorbance readings at 570 nm and 600 nm were taken, initially for background subtraction and after 24 h re-incubation. The subtraction is necessary for strongly coloured compounds, where the colour may interfere with the interpretation of any colour change. For non-interfering compounds, a blue colour in a well was interpreted as an absence of a growth and a pink colour was scored as a growth.
The minimum inhibitory concentration (MIC) was defined as the lowest concentration of the compound at which no visible bacterial growth was observed. In other words, the MIC was the lowest concentration that prevented a visual colour change from blue to pink. The MIC value has been routinely and widely used in bacterial assays and it has been a standard detection limit according to the Clinical and Laboratory Standards Institute. The clinically used antimycobacterial drugs INH and RIF were applied as the standards.

M. smegmatis ATCC 700084 = test: antimycobacterial MIC, broth dilution micromethod; assay type: cell-based; conditions: Mycolicibacterium smegmatis, ATCC700084, 72 h, 3 days at 37 °C
[8] = design: method as in PMID 16209439, PMID 16209439; conditions: potentiometric titration; cited from earlier work
M. marinum CAMP 5644 = test: antimycobacterial MIC, broth dilution micromethod; assay type: cell-based; conditions: Mycobacterium marinum, CAMP5644, 504 h, 21 days at 28 °C
[9] = design: method as in PMID 16209439, PMID 16209439, doi:10.2478/s11696-006-0007-y; conditions: octan-1-ol/phosphate buffer (pH = 7.4); cited from earlier work
M. kansasii DSM 44162 = test: antimycobacterial MIC, broth dilution micromethod; assay type: cell-based; conditions: Mycobacterium kansasii, DSM44162, 168 h, 7 days at 37 °C

| Compound | MIC ([1]; 24 h) [µM] | MIC ([1]; Table S4, 24 h) [µg/mL] | MIC ([2]; ATCC29213, 24 h) [µM] | MIC ([2]; ATCC29213, Table S4, 24 h) [µg/mL] | MIC ([3]; ATCC29212, 24 h) [µM] | MIC ([3]; ATCC29212, Table S4, 24 h) [µg/mL] | MIC ([4]; ATCC25922, 24 h) [µM] | MIC ([4]; ATCC25922, Table S4, 24 h) [µg/mL] | MIC [5] [µM] | MIC ([5]; Table S4) [µg/mL] | MIC [6] [µM] | MIC ([6]; Table S4) [µg/mL] | MIC (Candida krusei CCM 8271) [µM] | MIC (Candida krusei CCM 8271; Table S4) [µg/mL] | MIC ([7]; 37 °C, 11 days) [µM] | MIC [7] [µg/mL] | MIC (M. smegmatis ATCC 700084) [µM] | MIC (M. smegmatis ATCC 700084; Table S3) [µg/mL] | pKa [8] | MIC (M. marinum CAMP 5644) [µM] | further results |
| --- | --- | --- | --- | --- | --- | --- | --- | --- | --- | --- | --- | --- | --- | --- | --- | --- | --- | --- | --- | --- | --- |
| CCOc1ccc(NC(=O)OCC(O)CN2CCN(c3ccc(F)cc3)CC2)cc1 (stereo not drawn) [Compound 5l] | > 564 | > 256 | > 564 | > 256 | > 564 | > 256 | > 564 | > 256 | > 282 | > 128 | > 282 | > 128 | > 282 | > 128 | 2200 | 1000 | 564 | 256 | 7.18 | 282 | MIC (M. marinum CAMP 5644; Table S3): 128 µg/mL; log Pexp [9]: 3.28; MIC (M. kansasii DSM 44162): 564 µM; MIC (M. kansasii DSM 44162; Table S3): 256 µg/mL |
| COc1cccc(NC(=O)OCC(O)CN2CCN(c3cccc(C(F)(F)F)c3)CC2)c1 (stereo not drawn) [Compound 5c] | > 523 | > 256 | > 523 | > 256 | > 523 | > 256 | > 523 | > 256 | > 261 | > 128 | > 261 | > 128 | > 261 | > 128 | 1020 | 500 | 523 | 256 | 5.73 | 131 | MIC (M. marinum CAMP 5644; Table S3): 64 µg/mL; log Pexp [9]: 3.61; MIC (M. kansasii DSM 44162): 131 µM; MIC (M. kansasii DSM 44162; Table S3): 64 µg/mL |
| COc1ccccc1NC(=O)OCC(O)CN1CCN(c2ccc(F)cc2)CC1 (stereo not drawn) [Compound 5g] | > 582 | > 256 | > 582 | > 256 | > 582 | > 256 | > 582 | > 256 | > 291 | > 128 | > 291 | > 128 | > 291 | > 128 | 2270 | 1000 | 582 | 256 | 6.73 | 145 | MIC (M. marinum CAMP 5644; Table S3): 64 µg/mL; log Pexp [9]: 3.61; MIC (M. kansasii DSM 44162): 145 µM; MIC (M. kansasii DSM 44162; Table S3): 64 µg/mL |
